For 5 compounds, inhibition results are on record in patent publication US8357717B2, “Spiro group-containing amide compounds having bradykinin 1 receptor (B1R) activity” (Gruenenthal GmbH, priority 2009, dated 2013).

Each structure is given as a SMILES string.

Test [1] addresses T1, B1R receptor of the rat (rB1R) (Rattus norvegicus, UniProt P97583).
T1 construct: expressed in transfected cells; host or cells: CHO K1 cells, stably transfected
T1 sequence (P97583 1-337): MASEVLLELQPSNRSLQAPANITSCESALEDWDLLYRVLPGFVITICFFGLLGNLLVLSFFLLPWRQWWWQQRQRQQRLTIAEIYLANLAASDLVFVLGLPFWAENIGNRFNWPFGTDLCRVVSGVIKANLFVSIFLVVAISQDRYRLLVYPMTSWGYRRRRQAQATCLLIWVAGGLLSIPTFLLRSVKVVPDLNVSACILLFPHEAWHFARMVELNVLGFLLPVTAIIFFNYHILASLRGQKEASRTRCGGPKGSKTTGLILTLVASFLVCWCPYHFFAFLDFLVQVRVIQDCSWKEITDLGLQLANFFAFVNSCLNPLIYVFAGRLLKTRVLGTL
Put plainly: FLIPR Ca2+ functional study on bradykinin receptor 1, rB1R cells (CHO K1). Conditions: 10 μM test substance; CHO K1 cells with rat B1R; agonist Des-Arg9-bradykinin at EC80; read-out: B1R antagonism, rat [10 μM] % inhibition. Type of test: cell-based. The method, boiled down:
(§1)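 Stably transfected CHO K1 cells loaded with Fluo-4; FLIPR Ca2+ fluorescence (ex 488/em 540 nm, peak counts). Compounds (10 μM, or concentration series for IC50) preincubated 10–20 min, then EC80 agonist added (human: Lys-Des-Arg9-bradykinin; rat: Des-Arg9-bradykinin); % inhibition versus maximum achievable, n=2–3, N≥2.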

Test [2] has as its target T2, human B1R receptor (hB1R) (Homo sapiens, UniProt P46663).
T2 construct: expressed in transfected cells; host or cells: CHO K1 cells, stably transfected
T2 sequence (P46663 1-353): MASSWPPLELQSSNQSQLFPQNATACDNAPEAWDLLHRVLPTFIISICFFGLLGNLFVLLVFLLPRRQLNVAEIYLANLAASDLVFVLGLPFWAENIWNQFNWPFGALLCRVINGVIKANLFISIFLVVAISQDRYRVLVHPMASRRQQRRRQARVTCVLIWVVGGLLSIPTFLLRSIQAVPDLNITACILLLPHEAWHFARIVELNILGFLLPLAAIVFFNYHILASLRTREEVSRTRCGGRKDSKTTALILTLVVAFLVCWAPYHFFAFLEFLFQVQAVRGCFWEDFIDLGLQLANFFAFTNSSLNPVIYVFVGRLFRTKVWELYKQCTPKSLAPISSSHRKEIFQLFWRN
Nature of the test: FLIPR Ca2+ functional study on bradykinin receptor 1, hB1R cells (CHO K1). Type of test: cell-based. The following applies: CHO-K1, 10 μM test substance; CHO K1 cells with human B1R; agonist Lys-Des-Arg9-bradykinin at EC80; read-out: B1R antagonism, human [10 μM] % inhibition. An outline of the steps: as §1

Take `COc1ccc(S(=O)(=O)N2CCc3ccc(C(=O)N4CCC5(CC4)CCN(c4ccncc4)CC5)cc3C2)c2ccccc12` [Compound G-48, (2-(4-Methoxynaphthalin-1-ylsulfonyl)-1,2,3,4-tetrahydroisoquinolin-7-yl)(9-(pyridin-4-yl)-3,9-diazaspiro[5.5]undecan-3-yl)methanone]: the figures for the inhibition at 10 µM in test [1] and in test [2] were 95% and 73%, respectively.

Take `O=C(Cc1ccccc1Cl)N1CCc2ccc(C(=O)N3CCC4(CC3)CCN(c3ccncc3)CC4)cc2C1` [Compound G-43, 2-(2-Chlorophenyl)-1-(7-(9-(pyridin-4-yl)-3,9-diazaspiro[5.5]undecane-3-carbonyl)-3,4-dihydroisoquinolin-2(1H)-yl)ethanone]: the inhibition at 10 µM came to 102% in test [1] and 99% in test [2].

Regarding `COc1cc(C)c(S(=O)(=O)N2CCc3ccc(CC(=O)N4CCC5(CC4)CCN(c4ccncc4)CC5)cc32)c(C)c1` [Compound G-20, 2-(1-(4-Methoxy-2,6-dimethylphenylsulfonyl)indolin-6-yl)-1-(9-(pyridin-4-yl)-3,9-diazaspiro[5.5]undecan-3-yl)ethanone], the inhibition at 10 µM in test [1] is 102%; in test [2] it was 100%.

With `O=C(c1ccc2c(c1)CN(C(=O)c1ccc(Cl)s1)CC2)N1CCC2(CC1)CCN(c1ccncc1)CC2` [Compound G-42, (5-Chlorothiophen-2-yl)(7-(9-(pyridin-4-yl)-3,9-diazaspiro[5.5]undecane-3-carbonyl)-3,4-dihydroisoquinolin-2(1H)-yl)methanone], the inhibition at 10 µM is 102% in test [1] and 100% in test [2].

Regarding `O=C(c1ccccc1Cl)N1CCc2onc(C(=O)N3CCC4(CC3)CCN(c3ccncc3)CC4)c2C1` [Compound G-13, (5-(2-Chlorobenzoyl)-4,5,6,7-tetrahydroisoxazolo[4,5-c]pyridin-3-yl)(9-(pyridin-4-yl)-3,9-diazaspiro[5.5]undecan-3-yl)methanone], the figures for the inhibition at 10 µM in test [1] and in test [2] were 94% and 100%, respectively.
